Test results taken from the supplement of paper PMC10307832.

What was measured:
Test in all cases: relative viability (nuclei count vs DMSO), 5 days (fraction); higher = more cells survive
[1] = compound: CC(=O)c1c(C)c2cnc(Nc3ccc(N4CCNCC4)cn3)nc2n(C2CCCC2)c1=O [Palbociclib] + CC(=O)Nc1cccc(-n2c(=O)n(C3CC3)c(=O)c3c(Nc4ccc(I)cc4F)n(C)c(=O)c(C)c32)c1 [Trametinib] (partner 0.02 µM)
Outline: (§1)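 Medians of duplicate plates are given as relative viability. That measure is the nuclei count in treated wells divided by the count in vehicle wells. Counts were taken on 4× images of lung cancer cell lines in 1536-well plates, 5 days after pin-tool dosing the day after seeding with one drug alone or a fixed anchor-drug dose plus five library-drug doses (not always all listed) in √10 steps.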

[2] = compound: CC(=O)c1c(C)c2cnc(Nc3ccc(N4CCNCC4)cn3)nc2n(C2CCCC2)c1=O [Palbociclib] + CC1(C)CCC(c2ccc(Cl)cc2)=C(CN2CCN(c3ccc(C(=O)NS(=O)(=O)c4ccc(N[C@H](CCN5CCOCC5)CSc5ccccc5)c(S(=O)(=O)C(F)(F)F)c4)cc3)CC2)C1 [Navitoclax] (partner 0.5 µM)
Outline: as §1

[3] = compound: CC(=O)c1c(C)c2cnc(Nc3ccc(N4CCNCC4)cn3)nc2n(C2CCCC2)c1=O [Palbociclib] + COc1cc2c(Oc3ccc(NC(=O)C4(C(=O)Nc5ccc(F)cc5)CC4)cc3F)ccnc2cc1OCCCN1CCOCC1 [Foretinib] (partner 0.25 µM)
Outline: as §1

[4] = compound: CC(=O)c1c(C)c2cnc(Nc3ccc(N4CCNCC4)cn3)nc2n(C2CCCC2)c1=O [Palbociclib] + Cc1cc(Nc2cc(N3CCN(C)CC3)nc(Sc3ccc(NC(=O)C4CC4)cc3)n2)n[nH]1 [Tozasertib] (partner 0.1 µM)
Outline: as §1

| Cell Line | relative viability ([1]; first compound 0.01 µM) | relative viability ([1]; first compound 0.03162 µM) | relative viability ([1]; first compound 0.1 µM) | relative viability ([1]; first compound 0.3162 µM) | relative viability ([1]; first compound 1 µM) | relative viability ([2]; first compound 0.01 µM) | relative viability ([2]; first compound 0.03162 µM) | relative viability ([2]; first compound 0.1 µM) | relative viability ([2]; first compound 0.3162 µM) | relative viability ([2]; first compound 1 µM) | relative viability ([3]; first compound 0.01 µM) | relative viability ([3]; first compound 0.03162 µM) | relative viability ([3]; first compound 0.1 µM) | relative viability ([3]; first compound 0.3162 µM) | relative viability ([3]; first compound 1 µM) | relative viability ([4]; first compound 0.01 µM) | relative viability ([4]; first compound 0.03162 µM) | relative viability ([4]; first compound 0.1 µM) | relative viability ([4]; first compound 0.3162 µM) | relative viability ([4]; first compound 1 µM) |
| --- | --- | --- | --- | --- | --- | --- | --- | --- | --- | --- | --- | --- | --- | --- | --- | --- | --- | --- | --- | --- |
| LXF-289 | 0.662 | 0.633 | 0.632 | 0.619 | 0.605 | 0.94 | 0.94 | 0.937 | 0.83 | 0.772 | 0.977 | 0.926 | 0.955 | 0.896 | 0.828 | 0.175 | 0.2 | 0.19 | 0.233 | 0.248 |
| NCI-H23 | 0.447 | 0.295 | 0.42 | 0.39 | 0.289 | 1.13 |  | 0.79 | 0.789 | 0.572 | 0.954 |  | 1.11 | 0.962 | 0.69 | 0.335 |  | 0.381 | 0.378 | 0.412 |
| NCI-H358 | 0.124 | 0.133 | 0.106 | 0.12 | 0.106 |  |  |  |  |  | 0.718 | 0.545 | 0.523 | 0.412 | 0.226 | 0.0961 | 0.087 | 0.096 | 0.0791 | 0.0679 |
| NCI-H650 | 1.02 |  | 0.771 | 0.915 | 0.792 |  |  |  |  |  | 1.05 | 0.862 | 0.839 | 0.824 | 0.639 | 0.784 | 0.378 | 0.639 | 0.588 | 0.576 |
| NCI-H661 | 0.536 | 0.5 | 0.423 | 0.477 | 0.336 |  |  |  |  |  | 1.01 | 0.792 | 0.695 | 0.626 | 0.495 | 0.332 | 0.346 | 0.324 | 0.302 | 0.3 |
| NCI-H1299 |  |  |  |  |  | 1.09 | 0.949 | 0.909 | 0.846 | 0.715 | 1.05 | 0.996 | 1.02 | 0.942 | 0.754 |  |  |  |  |  |
| NCI-H1563 |  |  |  |  |  |  |  |  |  |  | 0.972 | 0.89 | 0.821 | 0.853 | 0.8 |  |  |  |  |  |
| NCI-H1648 | 0.657 | 0.364 | 0.357 | 0.45 | 0.406 |  |  |  |  |  |  |  |  |  |  | 0.585 |  | 0.405 | 0.526 | 0.175 |
| NCI-H1703 |  |  |  |  |  | 1.18 | 0.756 | 0.753 | 0.394 | 0.28 | 0.259 | 0.308 | 0.287 | 0.28 | 0.292 |  |  |  |  |  |
| NCI-H1792 | 0.501 | 0.376 | 0.323 | 0.338 | 0.213 | 0.583 | 0.537 | 0.592 | 0.461 | 0.321 |  |  |  |  |  |  |  |  |  |  |
| NCI-H2342 | 1.09 | 0.825 | 0.695 | 0.758 | 0.669 |  |  |  |  |  | 0.986 | 0.974 | 0.749 | 0.995 | 0.662 | 0.556 | 0.4 | 0.493 | 0.544 | 0.409 |
| SW 900 | 0.828 |  | 1.12 | 0.616 | 0.509 |  |  |  |  |  | 0.902 |  | 0.844 | 0.649 | 0.625 | 0.557 |  | 0.461 | 0.417 | 0.506 |
